Assay results: patent US20110257130A1 (priority 2008, published 2011)
Like-named read-outs stand apart in the source and are kept apart here.

Experiments:
[1] = molecular target: Angiotensin Converting Enzyme (ACE) (UniProt P12822); experiment: fluorimetric ACE assay with HHL substrate, 96-well format; type: biochemical; conditions: for reduction of ACE activity (formation of L-histidyl-L-leucine): compound incubated with enzyme at 37° C. for 30 min
Method: To determine whether the compounds of the presently-disclosed subject matter were capable of reducing the enzymatic activity of Angiotensin Converting Enzyme (ACE), an ACE assay was carried out according to the standard protocols (see, e.g., Schwager, et al. A high-throughput fluorimetric assay for angiotensin I-converting enzyme, Nature Protocols, 2006; 1 (4): 1961-1964, which is incorporated herein by this reference). The ACE assay involved a fluorimetric procedure in which the substrate hippury-L-histidyl-L-leucine (HHL) was used, and the fluorescent adduct of the enzyme-catalyzed product L-histidyl-L-leucine was quantified fluorimetrically. […] The results from the assay were analyzed in a 96-well plate reader with each concentration measured in triplicate.
Briefly, in a total of 250 μL assay volume, 10 μL of ACE enzyme (Sigma Chemical Co., St. Louis, Mo.) and 10 μL of either 1-(6,8-dimercaptooctanyl)pyrrolidine-2-carboxylic acid or prolyl lipoic acid (Formula (III) was added. Both compounds were incubated with enzyme at 37° C. for 30 min. The ACE substrate HHL, 6 μL in buffer, was then added to each well followed by incubation at 45° C. for 30 min. 170 μL of 0.3M sodium hydroxide solution was added to above solution followed by the addition of phalaldehyde solution in methanol. The mixture was then allowed to shake for 5 min. This step was followed by the addition of 32 μL of 2N hydrochloric acid to each well and subsequent measurement of the fluorescence at an excitation wavelength of 360 nm and an emission wavelength of 480 nm. Three controls were used to compare the readings, with the controls including wells without the enzyme, wells without the compounds, and wells without the HHL enzymatic substrate.
To further examine the IC50 value in relation to the absolute amounts of thiol groups of the 1-(6,8-dimercaptooctanyl)pyrrolidine-2-carboxylic acid compound, however, the amount of thiol groups in the reaction mixtures was also measured according to Ellman's method (see, e.g. Simpson R J, Estimation of free thiols and disulfide bonds using Ellman's reagent, CSHL Press, Cold Spring Harbor, N.Y., 2003; and, Ellman G L, Tissue sulfhydral groups, Arch. Biochem. Biophys., 1959; 82: 70-77, each of which are incorporated herein by this reference). […] The TNB^2− can then be quantified in a spectrophotometer by measuring the absorbance of visible light at 412 nm, using an extinction coefficient of 14,150M^−1 cm^−1 for dilute buffer solutions, and a coefficient of 13,700 M^−1 cm^−1 for high salt concentrations, such as 6 M guanidinium hydrochloride or 8 M urea. […] The absorbance was measured at 412 nm. […]

[2] = system: inflammatory genes (ICAM1, IL-6, IL-1β, MCP1, TGF-β1, VCAM1, TNF-α); experiment: inflammatory gene expression (mRNA transcript levels) in tissues after 6 weeks of treatment; type: in vivo, rat; conditions: 50 mg/kg daily IP
Method: (§1) To further examine the effects of prolyl lipoic acid (Formula (III)) on hypertension, the effect of prolyl lipoic acid was examined in spontaneously hypertensive rats over a longer time period. Briefly, spontaneously hypertensive rats (SHRSP rats, 10 weeks of age, n=10/group) were randomized to placebo or prolyl lipoic acid (50 mg/kg) groups for a duration of 6 weeks. The animals were housed 2 to a cage and were given Harlan-Teklad Laboratory Rodent Diet ad libitum (Harlan Laboratories, Indianapolis, Ind.). Prolyl lipoic acid or saline placebo was administered to the rats by daily intraperitoneal (IP) dosing.
Furthermore, inflammatory gene expression was assessed in the aorta, heart, brain and kidney by probing for mRNA transcript levels of the various inflammatory genes. Aortic and cardiac collagen synthesis was also assessed by Picrosirius Red staining and Massom-Trichrome staining and quantified by an automated thresholding program.

[3] = system: spontaneously hypertensive stroke prone rats (SHRSP); experiment: blood pressure by intra-arterial catheter / radio-telemetry in hypertension model; type: in vivo, rat
Text: To determine the effect of prolyl lipoic acid (Formula (III)) in an animal model of hypertension, spontaneously hypertensive stroke prone rats (SHRSP) were first procured from Charles River at the age of 6 weeks (Charles River Laboratories, Wilmington, Mass., U.S.A.). After a period of acclimatization for 4 weeks, the rats were then implanted with intra-arterial catheters in the abdominal aorta along with a radio-telemetry monitoring device to assess systolic blood pressure. Briefly, to implant the radio-telemetry devices, the operative procedure involved anesthetizing the animals with 375 mg/kg of 2,2,2-tribromoethanol (Sigma Chemical Co., St. Louis, Mo.). An incision was then made in the abdomen and the aorta was exposed. A 0.4 mm catheter attached to a combination pressure transducer, transmitter, and battery, all encapsulated in a implantable micro-miniature electronic monitor (PA-C20, Data Sciences International, St. Paul, Minn.), was then inserted.
Following implantation of the radio-telemetry devices, the animals were allowed to recover and the aortic pressure of each animal was monitored continuously. Once the animals sufficiently recovered, the rats then received 50 mg/kg of prolyl lipoic acid, dissolved in aqueous media, in a single dose. The blood pressures were then measured over a period of 12 hours and compared to the previous 12 hour period. […]
During the 6 week experimental period, blood pressure measurements were performed in a sub-group of 4 animals randomized to prolyl lipoic acid by intra-arterial catheter placement in the infra-renal aorta and acute administration of the prolyl lipoic acid prior to administration of drug. Additionally, four SHRSP rats (12 weeks old) were implanted with radio-telemetry transmitters (DataSciences Inc., St. Paul, Minn.) into their abdominal aortas and blood pressure was measured using the DSI system (DataSciences Inc.). In these later experiments, blood pressure was recorded continuously over 24-hour periods and reported as the change in blood pressure in the 12-hour period following the administration of the agent.

[4] = system: spontaneously hypertensive stroke prone rats (SHRSP); experiment: endothelial function by myography of aortic segments after 6 weeks of treatment; type: in vivo, rat; conditions: 50 mg/kg daily IP, pre-contraction 0.3 μM phenylephrine
Method: as §1
Following the completion of the six week period, the animals were euthanized at week 17 by lethal pentobarbital injection and tissues were removed from the animal. Upon removal of the tissues, endothelial function was assessed. It is known that endothelial function can refer to the unimpaired production of or availability of NO and/or a balance in the relative contribution of endothelium-derived relaxing and contracting factors (such as ET-1, angiotensin, and oxidants). […] As such, once the tissues were removed from the animals, endothelial cell function was assessed in the experimental groups by myography as percent-relaxation to acetylcholine or sodium nitroprusside subsequent to pre-contraction with 0.3 μM phenylephrine.

[5] = system: spontaneously hypertensive stroke prone rats (SHRSP); experiment: histology of organ sections (H&E wall thickness, CD68 staining) after 6 weeks of treatment; type: in vivo, rat; conditions: 50 mg/kg daily IP
Method: as §1
Additionally, four to eight sections of each organ were stained with CD68 or H&E for 10 animals (5 in each group) and images were obtained at 200× by bright-field microscopy. MetaMorph software was used for automated thresholding. The percentage of thresholded area of the picture was recorded and reported. Additionally, about 12 organ sections per rat were prepared for 10 of the rats (5 in each group). These sections were 5 microns in size and were stained with hematoxylin and eosin (H&E). Images were obtained at 40× (using bright-field microscopy and analyzed using MetaMorph software. For each image, the external elastic lamina of the aorta was traced using a drawing tool, and this area was logged. The luminal area was also measured. Thus, the tunica intima and tunica media were included in these measurements, not tunica adventitia. The wall thickness was calculated by subtracting the luminal area from the wall area.

[6] = system: pre-constricted rat aortic segments; experiment: vasodilation of phenylephrine pre-constricted aortic rings in myograph; design: species or system male Sprague-Dawley Rats; conditions: for relaxation of pre-constricted rat aortic segments: phenylephrine 0.1 μM pre-constriction, after 4-hour incubation with 44 mM glucose
Method: To determine the effect of lipoic acid and prolyl lipoic acid (Formula (III)) on vasodilation, aortas from male Sprague-Dawley Rats (n=2) were utilized. Briefly, each animal was first sacrificed and their aortas were removed. The aortas were then incubated in phosphate-buffered-saline (PBS) containing 44 mM glucose for 4 hours. Eight 5-mm ring segments of thoracic aorta were then suspended in a myograph chamber filled with a Krebs buffer of the following composition: NaCl, 118.3; KCl, 4.69; CaCl2, 1.87; MgSO4, 1.20; K2HPO4, 1.03; NaHCO3 25.0; and glucose 11.1; all values in mM, pH 7.40. During the following hour, the resting tension was increased to optimize constrictions due to exposure to KCl. The vessel segments were then pre-constricted with phenylephrine (PE; 0.1 μM) and were subjected to prolyl lipoic acid (Formula (III)) or lipoic acid. Vasodilation in the rat aortic rings in response to L-prolyl lipoic acid (1×10^−4 M) or lipoic acid (1×10^−4 M) (both dissolved in aqueous media) was then measured after a 4-hour incubation with glucose (44 mM). Endothelial cell function in the aortic rings was also measured by pre-constricting the aortic rings to the EC50 of phenylephrine and then subjecting the rings to a maximum acetylcholine dose (10^−5M).

Sequence of Angiotensin Converting Enzyme (ACE) (P12822 whole entry): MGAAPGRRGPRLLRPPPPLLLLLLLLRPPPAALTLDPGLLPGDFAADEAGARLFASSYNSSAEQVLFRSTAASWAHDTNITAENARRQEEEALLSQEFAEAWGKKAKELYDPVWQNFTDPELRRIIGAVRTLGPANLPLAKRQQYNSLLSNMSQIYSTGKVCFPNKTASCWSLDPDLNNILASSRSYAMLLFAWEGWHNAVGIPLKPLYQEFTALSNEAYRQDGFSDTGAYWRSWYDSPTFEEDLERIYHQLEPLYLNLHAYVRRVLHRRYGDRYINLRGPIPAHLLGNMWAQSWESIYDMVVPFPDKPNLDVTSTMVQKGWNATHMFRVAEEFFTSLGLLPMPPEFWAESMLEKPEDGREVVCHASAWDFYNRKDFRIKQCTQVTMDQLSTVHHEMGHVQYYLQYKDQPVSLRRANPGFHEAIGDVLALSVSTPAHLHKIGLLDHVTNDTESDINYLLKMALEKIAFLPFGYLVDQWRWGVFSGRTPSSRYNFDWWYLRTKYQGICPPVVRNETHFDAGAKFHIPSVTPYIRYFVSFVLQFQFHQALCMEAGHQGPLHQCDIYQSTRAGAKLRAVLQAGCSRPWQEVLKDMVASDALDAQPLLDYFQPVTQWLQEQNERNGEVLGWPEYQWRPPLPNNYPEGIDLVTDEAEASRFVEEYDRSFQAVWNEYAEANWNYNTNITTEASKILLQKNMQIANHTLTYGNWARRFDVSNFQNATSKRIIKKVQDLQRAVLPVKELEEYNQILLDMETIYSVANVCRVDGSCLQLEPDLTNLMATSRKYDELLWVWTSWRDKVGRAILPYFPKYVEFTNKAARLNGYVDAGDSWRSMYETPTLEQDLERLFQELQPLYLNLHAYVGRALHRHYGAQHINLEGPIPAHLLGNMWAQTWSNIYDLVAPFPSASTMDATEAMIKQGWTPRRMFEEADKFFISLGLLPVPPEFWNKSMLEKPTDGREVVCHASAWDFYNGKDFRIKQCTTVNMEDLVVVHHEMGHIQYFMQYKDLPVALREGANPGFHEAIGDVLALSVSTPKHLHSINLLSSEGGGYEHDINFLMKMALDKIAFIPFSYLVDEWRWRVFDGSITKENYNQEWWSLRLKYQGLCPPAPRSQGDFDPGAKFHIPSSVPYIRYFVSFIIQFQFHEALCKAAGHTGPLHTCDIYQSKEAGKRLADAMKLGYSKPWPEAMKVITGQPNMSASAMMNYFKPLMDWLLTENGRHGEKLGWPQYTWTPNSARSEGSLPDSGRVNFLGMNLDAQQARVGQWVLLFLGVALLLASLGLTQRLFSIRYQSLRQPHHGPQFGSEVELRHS

O=C(O)C1CCCN1C(=O)CCCCC(S)CCS (stereo not drawn)
reduction of ACE activity (formation of L-histidyl-L-leucine) [1]: effectively reduce ACE activity
IC50 ([1]; corrected for thiol content by Ellman's method, read-out: IC50 value recalculated after thiol quantification): 6.6 µM
IC50 ([1]; from plot of fluorescence counts against concentration (FIG. 13), read-out: IC50 value, initially found): ~29 µM

O=C(O)C1CCCN1C(=O)CCCCC1CCSS1 [prolyl lipoic acid, L-prolyl lipoic acid]
inflammatory gene expression in aorta ([2]; aorta): markedly reduced inflammatory gene expression
ICAM1 expression in brain ([2]; brain): some reductions in expression
IL-6 expression in brain ([2]; brain): some reductions in expression
reduction in inflammatory gene expression in brain ([2]; brain, compared with other tissues): not as pronounced
inflammatory gene expression in heart ([2]; heart): markedly reduced inflammatory gene expression
inflammatory gene expression in kidney ([2]; kidney): markedly reduced inflammatory gene expression
blood pressure after a single dose ([3]; 50 mg/kg single dose, 12 hours after versus previous 12 hour period): significantly reduced blood pressure
effects on blood pressure relative to captopril ([3]; 50 mg/kg versus captopril 100 mg/kg (FIG. 20)): comparable to the angiotensin converting enzyme inhibitor, captopril
blood pressure, acute administration ([3]; 50 mg/kg, SHRSP rats, FIGS. 18-19): acutely lowered blood pressure
endothelial function (relaxation to acetylcholine or sodium nitroprusside) [4]: improved endothelial function
CD68 expression in the brain [5]: without affecting CD68 expression
CD68 expression in the kidneys [5]: without affecting CD68 expression
CD68 expression in the myocardium [5]: without affecting CD68 expression
inflammatory cell recruitment to the heart [5]: favorable effects
inflammatory cell recruitment to the kidney [5]: favorable effects
aortic medial hypertrophy ([5]; H&E sections): effects in reducing aortic medial hypertrophy
relaxation of pre-constricted rat aortic segments ([6]; 1×10^−4 M): relaxed pre-constricted rat aortic segments
relaxation as compared to lipoic acid ([6]; 1×10^−4 M, same aortic ring test (FIG. 15)): increase in relaxation as compared to lipoic acid
endothelial function in aortic rings (vasodilation following acetylcholine) ([6]; rings pre-constricted to EC50 of phenylephrine, acetylcholine 10^−5M): improve endothelial function
reduction of ACE activity (formation of L-histidyl-L-leucine) [1]: effectively reduce ACE activity

O=C(O)CCCCC1CCSS1 (stereo not drawn) [lipoic acid, alpha lipoic acid, reference compound]
relaxation of pre-constricted rat aortic segments ([6]; 1×10^−4 M): relaxed pre-constricted rat aortic segments
